Measured values taken from US12115178B2, “Acylated active agents and methods of their use for the treatment of autoimmune disorders” (Flagship Pioneering Innovations V, Inc., priority 2018, dated 2024).

Assays:
Format in all cases: in vitro ADME
[1] = Assay 1. Stability in Simulated Gastric Fluid (SGF); settings: SGF pH 1.6 with pepsin, 1 μM, 37° C.
Method in brief: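 Degradation rate from LC/MS of acetonitrile-quenched aliquots (T0, then regular intervals). Fresh SGF (pH 1.6 NaCl, FaSSIF powder, pepsin 0.1 mg/mL) held compound at 1 μM final, 37° C; 1 mM DMSO stock.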

[2] = Assay 2. Stability in Simulated Intestinal Fluid (SIF); settings: SIF pH 6.7 with pancreatin, 1 μM, 37° C.
Method in brief: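 Degradation rates came from LC/MS of acetonitrile-quenched samples drawn at intervals, starting at T0. The medium was freshly made pH 6.7 FaSSIF containing pancreatin, and test compound was present at 1 µM while being shaken at 37 °C.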

[3] = Assay 3. In vitro Colonic Material Stability Assay; settings: colonic material slurry, anaerobic, 1 or 10 μM
Description: Assay 3. In vitro Colonic Material Stability Assay. This assay was used to assess the stability of an acylated active agent in a large intestine. All experiments were performed in an anaerobic chamber containing 90% nitrogen, 5% hydrogen and 5% carbon dioxide. Colonic material was resuspended as a slurry (15% w/v final concentration) in pre-reduced, anaerobically sterilized dilution blanks (Anaerobe Systems AS-908). The colonic material was then inoculated into 96 well plates containing YCFAC media (Anaerobe Systems AS-680) or other suitable media (6.7 μL slurry into 1 mL total media). Compounds or groups of compounds were added to each individual well to reach a final analyte concentration of 1 or 10 μM, and the material was mixed by pipetting. Sample was removed after set timepoints (0, 120, 240, 480, 1440, 2880 minutes after initiation of the assay), quenched with acetonitrile containing internal standard, and analyzed by LC/MS.

Row | SMILES | Assay 1 (SGF) (% Remaining @ 1 hour) [1] | Assay 2 (SIF) (% @ Remaining 4 hours) [2] | Assay 3 (% Remaining at 24 h) [3]
1 | CCC(=O)OC[C@H]1O[C@H](OC(=O)Cc2c[nH]c3ccccc23)[C@H](OC(=O)CC)[C@@H](OC(=O)CC)[C@@H]1OC(=O)CC [Compound 114, [(2R,3R,4S,5R,6R)-6-{[2-(1H-indol-3-yl)acetyl]oxy}-3,4,5-tris(propanoyloxy)oxan-2-yl]methyl propanoate] | C (>75% of the tested compound remaining) | A (<25% of the tested compound remaining) | A (<25% of the tested compound remaining)
2 | CCCC(=O)O[C@H]1[C@@H](Oc2ccc(N)cc2C(=O)O)OC[C@@H](OC(=O)CCC)[C@H]1OC(=O)CCC [Compound 185, 5-amino-2-(((2R,3R,4R,5R)-3,4,5-tris(butyryloxy)tetrahydro-2H-pyran-2-yl)oxy)benzoic acid] | C (>75% of the tested compound remaining) | B (25-75% of the tested compound remaining) | B (25-75% of the tested compound remaining)
3 | CCCC(=O)O[C@@H]1[C@@H](OC(=O)CCC)[C@@H](OC)OC[C@H]1OC(=O)CCC [Compound 71, (2S,3R,4S,5R)-4,5-bis(butanoyloxy)-2-methoxyoxan-3-yl butanoate] | B (25-75% of the tested compound remaining) | A (<25% of the tested compound remaining) | A (<25% of the tested compound remaining)
4 | CCC(=O)O[C@@H]1[C@@H](OC(=O)CC)[C@@H](OC(=O)CC)C(O)O[C@H]1C (stereo partly drawn) [Compound 113, (3R,4R,5S,6S)-2-hydroxy-6-methyl-4,5-bis(propanoyloxy)oxan-3-yl propanoate] | C (>75% of the tested compound remaining) | A (<25% of the tested compound remaining) | C (>75% of the tested compound remaining)
5 | CCCC(=O)Oc1ccc(-c2oc3cc(OC(=O)CCC)cc(OC(=O)CCC)c3c(=O)c2OC(=O)CCC)cc1 [Compound 166, 4-[3,5,7-tris(butanoyloxy)-4-oxo-4H-chromen-2-yl]phenyl butanoate] | B (25-75% of the tested compound remaining) | A (<25% of the tested compound remaining) | A (<25% of the tested compound remaining)
6 | CCC(=O)O[C@@H]1[C@@H](OC(=O)CC)[C@@H](OC)OC[C@H]1OC(=O)CC [Compound 72, (2S,3R,4S,5R)-2-methoxy-4,5-bis(propanoyloxy)oxan-3-yl propanoate] | C (>75% of the tested compound remaining) | B (25-75% of the tested compound remaining) | A (<25% of the tested compound remaining)
7 | CCC(=O)O[C@H]1OC[C@@H](OC(=O)CC)[C@@H](OC(=O)CC)[C@H]1OC(=O)CC [Compound 101, (2R,3R,4R,5R)-3,4,5-tris(propanoyloxy)oxan-2-yl propanoate] | C (>75% of the tested compound remaining) | A (<25% of the tested compound remaining) | A (<25% of the tested compound remaining)
8 | CCC(=O)Oc1cc(OC(=O)CC)c2c(c1)O[C@H](c1ccc(OC(=O)CC)c(OC(=O)CC)c1)[C@H](OC(=O)CC)C2 [Compound 194, (2R,3R)-2-[3,4-bis(propanoyloxy)phenyl]-5,7-bis(propanoyloxy)-3,4-dihydro-2H-1-benzopyran-3-yl propanoate] | B (25-75% of the tested compound remaining) | A (<25% of the tested compound remaining) | A (<25% of the tested compound remaining)
9 | CCC(=O)O[C@@H]1[C@@H](OC(=O)CC)[C@@H](OC(=O)CCc2c[nH]c3ccccc23)OC[C@@H]1OC(=O)CC [Compound 126, (2R,3R,4S,5S)-3,4,5-tris(propanoyloxy)oxan-2-yl 3-(1H-indol-3-yl)propanoate] | C (>75% of the tested compound remaining) | A (<25% of the tested compound remaining) | A (<25% of the tested compound remaining)
10 | CCC(=O)O[C@@H]1[C@@H](OC(=O)CC)[C@@H](OC(=O)/C=C/c2c[nH]c3ccccc23)OC[C@H]1OC(=O)CC [Compound 93, (2R,3R,4S,5R)-3,4,5-tris(propanoyloxy)oxan-2-yl (2E)-3-(1H-indol-3-yl)prop-2-enoate] | C (>75% of the tested compound remaining) | A (<25% of the tested compound remaining) | A (<25% of the tested compound remaining)
11 | CCCC(=O)O[C@@H]1[C@@H](OC(=O)CCC)[C@@H](Oc2ccc(N)cc2C(=O)O)OC[C@@H]1OC(=O)CCC [Compound 22, 5-amino-2-[(2R,3R,4S,5S)-3,4,5-tri(butanoyloxy)tetrahydropyran-2-yl]oxy-benzoic acid] | C (>75% of the tested compound remaining) | B (25-75% of the tested compound remaining) | B (25-75% of the tested compound remaining)
12 | CCCC(=O)O[C@@H]1[C@@H](OC(=O)CCC)[C@H](Oc2ccccc2C(=O)O)OC[C@H]1OC(=O)CCC [Compound 186, 2-{[(2S,3R,4S,5R)-3,4,5-tris(butanoyloxy)oxan-2-yl]oxy}benzoic acid] | C (>75% of the tested compound remaining) | A (<25% of the tested compound remaining) | A (<25% of the tested compound remaining)
13 | CCC(=O)O[C@@H]1[C@@H](OC(=O)CC)[C@H](OC)OC[C@H]1OC(=O)CC [Compound 73, (2R,3R,4S,5R)-2-methoxy-4,5-bis(propanoyloxy)oxan-3-yl propanoate] | C (>75% of the tested compound remaining) | A (<25% of the tested compound remaining) | A (<25% of the tested compound remaining)
14 | CCC(=O)O[C@@H]1[C@H](OC)OC[C@@H](OC(=O)CC)[C@H]1OC(=O)CC [Compound 68, (2R,3S,4R,5R)-2-methoxy-3,5-bis(propanoyloxy)oxan-4-yl propanoate] | C (>75% of the tested compound remaining) | A (<25% of the tested compound remaining) | B (25-75% of the tested compound remaining)
15 | CCCC(=O)O[C@@H]1[C@@H](OC(=O)CCC)[C@@H](OC(=O)CCc2c[nH]c3ccccc23)OC[C@H]1OC(=O)CCC [Compound 96, (2R,3R,4S,5R)-4,5-bis(butanoyloxy)-2-{[3-(1H-indol-3-yl)propanoyl]oxy}oxan-3-yl butanoate] | C (>75% of the tested compound remaining) | A (<25% of the tested compound remaining) | A (<25% of the tested compound remaining)
16 | CCC(=O)O[C@@H]1[C@@H](OC(=O)CC)[C@@H](OC)OC[C@@H]1OC(=O)CC [Compound 53, (2S,3R,4S,5S)-2-methoxy-3,5-bis(propanoyloxy)oxan-4-yl propanoate] | C (>75% of the tested compound remaining) | B (25-75% of the tested compound remaining) | C (>75% of the tested compound remaining)
17 | CC(=O)O[C@H]1O[C@H](C(=O)O)[C@@H](OC(C)=O)[C@H](OC(C)=O)[C@H]1OC(C)=O [Compound 163, (2S,3S,4S,5R,6R)-3,4,5,6-tetraacetoxytetrahydro-2H-pyran-2-carboxylic acid] | C (>75% of the tested compound remaining) | C (>75% of the tested compound remaining) | B (25-75% of the tested compound remaining)
18 | CCCC(=O)O[C@@H]1[C@@H](OC(=O)CCC)[C@H](C)O[C@@H](Oc2ccc(N)cc2C(=O)O)[C@@H]1OC(=O)CCC [Compound 39, 5-amino-2-(((2S,3R,4R,5S,6S)-3,4,5-tris(butyryloxy)-6-methyltetrahydro-2H-pyran-2-yl)oxy)benzoic acid] | C (>75% of the tested compound remaining) | B (25-75% of the tested compound remaining) | C (>75% of the tested compound remaining)
19 | CCC(=O)O[C@@H]1[C@@H](OC(=O)CC)[C@H](C)O[C@H](OC(=O)/C=C/c2c[nH]c3ccccc23)[C@@H]1OC(=O)CC [Compound 107, (2R,3R,4R,5S,6S)-6-methyl-3,4,5-tris(propanoyloxy)oxan-2-yl (2E)-3-(1H-indol-3-yl)prop-2-enoate] | B (25-75% of the tested compound remaining) | A (<25% of the tested compound remaining) | B (25-75% of the tested compound remaining)
